Ten molecules from ChEMBL document CHEMBL1131587, “Novel peptidyl phosphorus derivatives as inhibitors of human calpain I” (J Med Chem, 1998) can be followed below.

A value given as a limit tells only on which side of the number the result lay.

The target in this test is T1, Calpain-1 catalytic subunit (Homo sapiens, UniProt P07384).
T1 sequence (P07384 whole entry): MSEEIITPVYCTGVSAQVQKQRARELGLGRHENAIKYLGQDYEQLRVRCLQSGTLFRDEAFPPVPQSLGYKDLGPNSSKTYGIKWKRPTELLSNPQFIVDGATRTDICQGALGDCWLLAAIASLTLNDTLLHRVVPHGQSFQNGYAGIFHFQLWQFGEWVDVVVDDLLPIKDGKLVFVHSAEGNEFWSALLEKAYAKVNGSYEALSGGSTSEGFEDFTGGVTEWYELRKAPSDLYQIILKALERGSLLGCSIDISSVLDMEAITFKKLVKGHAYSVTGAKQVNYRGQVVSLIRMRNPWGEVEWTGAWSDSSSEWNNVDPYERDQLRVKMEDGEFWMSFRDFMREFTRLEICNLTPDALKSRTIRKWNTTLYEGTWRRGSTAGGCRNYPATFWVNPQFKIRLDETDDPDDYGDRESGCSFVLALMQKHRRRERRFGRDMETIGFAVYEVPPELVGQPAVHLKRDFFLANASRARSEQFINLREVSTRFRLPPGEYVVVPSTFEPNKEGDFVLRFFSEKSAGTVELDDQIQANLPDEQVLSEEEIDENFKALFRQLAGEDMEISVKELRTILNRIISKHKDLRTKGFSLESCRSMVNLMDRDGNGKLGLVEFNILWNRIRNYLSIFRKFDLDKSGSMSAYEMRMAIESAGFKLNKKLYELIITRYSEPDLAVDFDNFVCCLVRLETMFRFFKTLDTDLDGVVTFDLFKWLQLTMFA
Kind of test: inhibitory activity measured against recombinant human Calpain-I receptor.
Turning to `CC(C)CC(NC(=O)OCc1ccccc1)C(=O)N[C@H](CC(C)C)C(=O)P(=O)(c1ccc(Cl)cc1)c1ccc(Cl)cc1` (stereo not given in full), the IC50 turned out to be 0.35 µM.

`CCCCOP(=O)(OCCCC)C(=O)[C@@H](Cc1ccccc1)NC(=O)C(NC(=O)OCc1ccccc1)C(C)C` (stereo not given in full): the IC50 was more than 10 µM.

On to `CC(C)C(NC(=O)OCc1ccccc1)C(=O)N[C@H](Cc1ccccc1)C(=O)P(=O)(OCc1ccccc1)OCc1ccccc1` (stereo not given in full), for which the IC50 is 6 µM.

For `CCCCOP(=O)(OCCCC)C(=O)[C@@H](CC(C)C)NC(=O)C(CC(C)C)NC(=O)OCc1ccccc1` (stereo not given in full), the IC50 was more than 10 µM.

Regarding `CC(C)CC(NC(=O)OCc1ccccc1)C(=O)N[C@H](CC(C)C)C(=O)P(C)(C)=O` (stereo not given in full), the IC50 was more than 10 µM.

With `COP(=O)(OC)C(=O)[C@@H](CC(C)C)NC(=O)C(CC(C)C)NC(=O)OCc1ccccc1` (stereo not given in full), the IC50 came to 0.43 µM.

For the molecule `COP(=O)(O)C(=O)[C@@H](CC(C)C)NC(=O)C(CC(C)C)NC(=O)OCc1ccccc1` (stereo not given in full), the IC50 is 5.2 µM.

For the molecule `CCOP(=O)(C(=O)[C@@H](CC(C)C)NC(=O)C(CC(C)C)NC(=O)OCc1ccccc1)c1ccccc1` (stereo not given in full), the IC50 was 0.37 µM.

For `CCOC(=O)[C@@H](CC(C)C)NC(=O)C(CC(C)C)NC(=O)OCc1ccccc1` (stereo not given in full), the IC50 was determined as 0.6 µM.

For the molecule `COP(=O)(OC)C(=O)[C@@H](Cc1ccccc1)NC(=O)C(NC(=O)OCc1ccccc1)C(C)C` (stereo not given in full), the IC50 is 7.4 µM.

In general, IC50 refers to the midpoint of a concentration-inhibition curve.
